Laboratory results from patent US12076307B2, “Compositions for prevention or treatment of acute radiation syndrome and other radiation exposure” (priority 2017, dated 2024).
Values joined by “and” are separate entries in the source; they are usually repeats but may differ in a detail not shown here. Equal entries are not always repeated.

Columns and labels:
[1] = test system: Balb/c mice, γ-Radiation TBI; assay: Survival after total body irradiation 6.5-10 Gy (Example 4); assay type: in vivo, mouse; settings: 250 mg/kg/day PO
From the text: In order to evaluate effects of PLAG on survival rates of animal models exposed to radiation, the following test groups were constructed as shown in Table 3 and results are shown in FIG. 7B, and FIG. 8-12. As discussed in Examples above, the first group of untreated group (negative control) of ARS-induced mice after radiation was compared to the second group of treated group of ARS-induced mice with PLAG after radiation.

[2] = test system: C57BL/6J mice, 680 cGy TBI; assay: 30-day survival in C57BL/6J mice after LD70/30 (680 cGy) TBI; assay type: in vivo, mouse; settings: for Dead/Moribund, Females (percent) / Dead/Moribund, Males (percent): N=24; for Dead/Moribund, All Animals (percent): N=48
Protocol: The objective of this study was to evaluate the 30-day survival benefit of EC-18 in male and female C57BL/6J mice when administered by daily oral gavage at doses ranging from 100-375 mg/kg/day, for 30 consecutive days beginning approximately 24 hrs after a single LD70/30 dose (680 cGy) of TBI. The study had 4 dose groups, each with 24 animals of each sex, Group 1 animals were administered sterile PBS, Groups 2, 3, and 4 were administered EC-18 at 100, 250, and 375 mg/kg/day, respectively. Dose volumes were determined using the most recently recorded body weight. Survival was monitored for 30 days post irradiation, with early removal criterion used to determine morbidity. Clinical observations were recorded daily before administration of vehicle or test article. […] Body weights were recorded minimally 3 times per week, daily for animals with weight loss of ≥15%, or twice daily for animals with ≥20% weight loss.

Beagle dog = assay: Cardiovascular function in conscious dogs; assay type: in vivo; settings: doses up to 2000 mg/kg
Protocol: CA was administered to one unanesthetized and unrestrained telemetered male Beagle dog and EC-18 (500, 1000, or 2000 mg/kg) was administered to each of three unanesthetized and unrestrained telemetered male Beagle dogs (1:1:1:1) weekly for 4 weeks. Cardiovascular effects were evaluated based on the behavioral observations, BP, HR, and ECG, from 1-hr pre-dose to 24-hr post-dose.

OAT1 = target: T1, OAT1 (Homo sapiens, UniProt Q4U2R8); assay: Drug transporter inhibition, OAT1; assay type: in vitro ADME; settings: 100 nM [3H] para-aminohippuric acid; transfected HEK-293 cells
T1 construct: expressed in transfected cells; host or cells: HEK-293
T1 sequence (Q4U2R8 whole entry, species assumed): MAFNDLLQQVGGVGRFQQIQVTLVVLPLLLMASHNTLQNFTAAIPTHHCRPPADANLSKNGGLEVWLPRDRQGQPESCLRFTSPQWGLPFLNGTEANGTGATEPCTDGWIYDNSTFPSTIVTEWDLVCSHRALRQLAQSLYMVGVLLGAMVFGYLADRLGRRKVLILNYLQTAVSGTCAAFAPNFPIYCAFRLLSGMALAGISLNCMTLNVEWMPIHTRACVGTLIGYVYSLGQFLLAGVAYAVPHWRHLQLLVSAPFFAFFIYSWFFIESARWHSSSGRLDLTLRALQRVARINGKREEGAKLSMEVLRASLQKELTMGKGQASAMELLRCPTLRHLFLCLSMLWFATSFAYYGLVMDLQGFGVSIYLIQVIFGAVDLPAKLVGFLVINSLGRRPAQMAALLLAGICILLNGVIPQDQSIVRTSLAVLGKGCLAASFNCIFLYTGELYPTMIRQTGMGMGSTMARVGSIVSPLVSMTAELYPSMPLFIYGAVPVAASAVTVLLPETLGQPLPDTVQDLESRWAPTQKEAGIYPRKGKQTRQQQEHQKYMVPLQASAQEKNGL
Protocol: (§1) This study examined the potential of EC-18 to interact with the transporter proteins that have been known to be involved in the absorption of commercially available drugs. EC-18 was pre-incubated with HEK-293 cells and LLC-PK1 cells that were transfected with the genes of most drug transporters as follows: OATP1B1, OATP1B3, OAT1, OAT3 and OCT2, and BCRP and P-gp, respectively.

BCRP = target: T2, BCRP (Homo sapiens, UniProt Q9UNQ0); assay: Drug transporter inhibition, BCRP; assay type: in vitro ADME; settings: 100 nM [3H] estrone-3-sulfate; transfected LLC-PK1 cells
T2 construct: expressed in transfected cells; host or cells: LLC-PK1
T2 sequence (Q9UNQ0 whole entry, species assumed): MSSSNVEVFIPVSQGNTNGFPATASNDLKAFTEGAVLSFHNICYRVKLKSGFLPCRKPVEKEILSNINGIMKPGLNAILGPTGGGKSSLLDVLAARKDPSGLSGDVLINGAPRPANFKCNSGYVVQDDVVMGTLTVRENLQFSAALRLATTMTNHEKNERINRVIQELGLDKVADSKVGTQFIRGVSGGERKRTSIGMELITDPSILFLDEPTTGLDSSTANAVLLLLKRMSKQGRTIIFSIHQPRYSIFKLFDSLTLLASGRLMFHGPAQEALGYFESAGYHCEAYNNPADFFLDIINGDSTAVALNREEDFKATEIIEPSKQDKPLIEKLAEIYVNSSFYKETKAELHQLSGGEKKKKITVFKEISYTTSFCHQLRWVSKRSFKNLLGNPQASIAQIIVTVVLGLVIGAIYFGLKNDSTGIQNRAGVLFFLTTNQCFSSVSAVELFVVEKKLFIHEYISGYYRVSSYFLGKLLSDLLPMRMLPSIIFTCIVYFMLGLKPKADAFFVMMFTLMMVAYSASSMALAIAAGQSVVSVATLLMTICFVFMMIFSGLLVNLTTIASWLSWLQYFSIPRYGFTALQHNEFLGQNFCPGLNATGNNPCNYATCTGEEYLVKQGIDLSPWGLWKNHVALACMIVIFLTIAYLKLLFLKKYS
Protocol: as §1

[3] = Repeated dose toxicity, SD rat; assay type: in vivo; settings: SD, rat, in vivo, Oral
From the text: (§2) Various toxicology studies have been performed. All studies were GLP-compliant unless otherwise noted.

SD rat = assay: Repeated dose toxicity, SD rat; assay type: in vivo; settings: Oral
From the text: as §2

Balb/c mice, 6.11 Gy TBI = assay: Dose optimization / pharmacodynamics study in LD70/30 ARS model (40 mice per group)
[4] = 6.11 Gy, EC-18 50 mg/kg daily from day 1, 30 days

CCCCC/C=C\C/C=C\CCCCCCCC(=O)OC(COC(C)=O)COC(=O)CCCCCCCCCCCCCCC (stereo not drawn) [EC-18, 1-palmitoyl-2-linoleoyl-3-acetylglycerol]
survival rate vs untreated mice ([1]; 6.5 Gy TBI, BALB/c 9 weeks old): improved
survival rate vs untreated mice ([1]; 6.5 Gy TBI, BALB/c 11 weeks old): improved
survival rate vs untreated mice ([1]; 7 Gy TBI, 9 weeks old): improved until about day 15
survival rate vs untreated mice ([1]; 8 Gy TBI, 9 weeks old): improved until about day 14
survival rate vs untreated mice ([1]; 10 Gy TBI, 9 weeks old): improved until about day 9
combined sex survival ([2]; Group 2, 100 mg/kg/day): 21%
increased survival above vehicle control, females ([2]; Group 2, 100 mg/kg/day): 29%
survival, males ([2]; Group 2-4 (100-375 mg/kg/day)): 0-8%
combined sex survival ([2]; Group 3, 250 mg/kg/day): 25%
increased survival above vehicle control, females ([2]; Group 3, 250 mg/kg/day): 46%
combined sex survival ([2]; Group 4, 375 mg/kg/day): 29%
increased survival above vehicle control, females ([2]; Group 4, 375 mg/kg/day): 46%
Dead/Moribund, Females (percent) ([2]; Grp 2: 100 mg/kg): 16 (67%)
Dead/Moribund, Males (percent) ([2]; Grp 2: 100 mg/kg): 22 (92%)
Dead/Moribund, All Animals (percent) ([2]; Grp 2: 100 mg/kg): 38 (79%)
Dead/Moribund, Females (percent) ([2]; Grp 3: 250 mg/kg): 12 (50%)
Dead/Moribund, Males (percent) ([2]; Grp 3: 250 mg/kg): 24 (100%)
Dead/Moribund, All Animals (percent) ([2]; Grp 3: 250 mg/kg): 36 (75%)
Dead/Moribund, Females (percent) ([2]; Grp 4: 375 mg/kg): 12 (50%)
Dead/Moribund, Males (percent) ([2]; Grp 4: 375 mg/kg): 22 (92%)
Dead/Moribund, All Animals (percent) ([2]; Grp 4: 375 mg/kg): 34 (71%)
mean body weights vs vehicle ([2]; any study day): no statistically significant differences
cardiovascular effects (behavior, BP, HR, ECG) (Beagle dog): no cardiovascular effects
IC50 (OAT1): > 32 µM
IC50 (BCRP): > 32 µM
NOAEL at 4 weeks ([3]; 4 weeks (DRF)): > 2000 mg/kg/day
NOAEL at 13 weeks ([3]; 13 weeks): > 2000 mg/kg/day
NOAEL at 26 weeks ([3]; 26 weeks (4-week recovery)): > 2000 mg/kg/day
findings (SD rat; 4 weeks (DRF)): No specific findings
mortality (SD rat; 4 weeks (DRF), 0, 500, 1000, 2000 mg/kg): No dead animals
findings (SD rat; 13 weeks): No specific findings
mortality (SD rat; 13 weeks, 0, 500, 1000, 2000 mg/kg): No dead animals
findings (SD rat; 26 weeks (4-week recovery)): No specific findings
mortality (SD rat; 26 weeks (4-week recovery), male in 500 mg/kg group, 41st day, no relationship to EC-18 dosing): A single case of death
improvement in survival vs control group (Balb/c mice, 6.11 Gy TBI; 25 mg/kg (so in the source)): 2 fold
improvement in survival vs control group (Balb/c mice, 6.11 Gy TBI; 250 mg/kg daily, 24-hr delayed): 4 fold
γ-radiation-induced reduction of RBC and hemoglobin (Balb/c mice, 6.11 Gy TBI; 250 mg/kg, 30 days of observation): significantly prevented
mean PLT count vs control cohort (Balb/c mice, 6.11 Gy TBI; 250 mg/kg, from 15 days to the last day of observation): higher
improvement in survival vs control group (Balb/c mice, 6.11 Gy TBI; 500 mg/kg daily, 24-hr delayed): ~4 fold
Survival time of decedents, Median (Balb/c mice, 6.11 Gy TBI; 6.11 Gy, EC-18 50 mg/kg): 25.5 days
No. of mice that survived/total (Balb/c mice, 6.11 Gy TBI; [4]): 24/40
Survivability / Survival (Balb/c mice, 6.11 Gy TBI; [4]): 60%
Survival time of decedents, Mean ± SEM (Balb/c mice, 6.11 Gy TBI; 6.11 Gy, EC-18 50 mg/kg, 50 mg/kg): 24.3 days and 24.3 ± 1.2 days
Survival time of decedents, Mean ± SEM (Balb/c mice, 6.11 Gy TBI; 6.11 Gy, EC-18 100 mg/kg): 22.8 ± 1.7 days
Survival time of decedents, Median (Balb/c mice, 6.11 Gy TBI; 6.11 Gy, EC-18 100 mg/kg): 26.0 days
